The record followed here is US12492173B2, “Herbicidal substituted N-tetrazolyl aryl carboxamides” (Bayer Aktiengesellschaft, priority 2019, dated 2025).

What all share (type): in vivo
Experiment [1] has as its system Viola tricolor. Description: Pre-emergence herbicidal action, VIOTR. The settings on record: dosage 320 g/ha; for herbicidal activity VIOTR: scored visually after 3 weeks vs untreated controls (100% = plants have died). In a few lines:
(§1)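 Pre-emergence, sandy loam soil; WP/EC formulation applied to covering soil surface, 600–800 l/ha water + 0.2% wetter; greenhouse, 3 wk; visual % damage vs untreated (0–100%).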

Experiment [2] has as its system Veronica persica. Description: Post-emergence herbicidal action, VERPE. On the set-up: key: % herbicidal action vs untreated; 100 = plants died, 0 = like control. In a few lines: (§2)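 WP or EC formulations, diluted in water at 600 to 800 l/ha with 0.2% wetting agent, are sprayed onto green parts of one-leaf-stage plants grown in sandy loam. Visual assessment of percent damage relative to untreated controls follows after approximately 3 weeks in the greenhouse.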

In experiment [3] the test system is Polygonum convolvulus. The experiment can be described thus: Pre-emergence herbicidal action, POLCO. The settings on record: dosage 320 g/ha; for herbicidal activity POLCO: scored visually after 3 weeks vs untreated controls (100% = plants have died). In a few lines:
as §1

In experiment [4] the test system is Matricaria inodora. The experiment can be described thus: Pre-emergence herbicidal action, MATIN. Conditions: dosage 320 g/ha; for herbicidal activity MATIN: scored visually after 3 weeks vs untreated controls (100% = plants have died). In a few lines:
as §1

Experiment [5] deals with Setaria viridis. The experiment can be described thus: Pre-emergence herbicidal action, SETVI. The settings on record: dosage 320 g/ha; for herbicidal activity SETVI: scored visually after 3 weeks vs untreated controls (100% = plants have died). In a few lines: as §1
Experiment [6] has as its system Matricaria inodora. Description: Post-emergence herbicidal action, MATIN. Details: key: % herbicidal action vs untreated; 100 = plants died, 0 = like control. In a few lines:
as §2

Take `CCCn1nnnc1NC(=O)c1ccc(C(F)(F)F)c(CSCC)c1C` [Example 3-86]: the “herbicidal action VIOTR” value in experiment [1] is given as 100%. Moreover, the “herbicidal action VERPE” value in experiment [2] (Dosage 80 g/ha) was determined as 80. Also, the “herbicidal action POLCO” value in experiment [3] came out at 90%. Besides, the “herbicidal action MATIN” value in experiment [4] worked out at 100%; in experiment [6] (Dosage 80 g/ha), 90. Moreover, in experiment [5], the “herbicidal action SETVI” value worked out at 90%.
In the case of `CCCn1nnnc1NC(=O)c1ccc(C(F)(F)F)c(C[S+](C)[O-])c1SC` (stereo not drawn) [Example 3-162], in experiment [1], the “herbicidal activity VIOTR” value is on record as 100%. For the same compound, the “herbicidal action VERPE” value in experiment [2] (post-emergence, dosage 80 g/ha) was found to be 100%. In addition, the “herbicidal activity POLCO” value in experiment [3] is on record as 100%. Further, the “herbicidal activity MATIN” value in experiment [4] is 100%. Further, in experiment [5], the “herbicidal activity SETVI” value is given as 100%. Also, the “herbicidal action MATIN” value in experiment [6] (post-emergence, dosage 80 g/ha) stood at 100%.
As for `CCCn1nnnc1NC(=O)c1ccc(C(F)(F)F)c(CS(C)(=O)=O)c1SC` [Example 3-163], the “herbicidal activity VIOTR” value in experiment [1] is reported as 100%. In experiment [2] (Dosage 80 g/ha), the “herbicidal action VERPE” value was found to be 100. Also, the “herbicidal activity POLCO” value in experiment [3] is on record as 80%. Further, the “herbicidal activity MATIN” value in experiment [4] is reported as 100%. Also, the “herbicidal activity SETVI” value in experiment [5] came out at 100%. Further, in experiment [6] (Dosage 80 g/ha), the “herbicidal action MATIN” value was found to be 90.
Take `CCCn1nnnc1NC(=O)c1ccc(C(F)F)c(CSC)c1SC` [Example 3-170]: in experiment [1], the “herbicidal activity VIOTR” value was determined as 100%. In addition, the “herbicidal action VERPE” value in experiment [2] (Dosage 80 g/ha) came out at 90. In addition, the “herbicidal activity POLCO” value in experiment [3] was 90%. Moreover, the “herbicidal activity MATIN” value in experiment [4] amounted to 100%. In addition, in experiment [5], the “herbicidal activity SETVI” value worked out at 100%. Also, in experiment [6] (Dosage 80 g/ha), the “herbicidal action MATIN” value was 100.
Turning to `CCCn1nnnc1NC(=O)c1ccc(C(F)F)c(C[S+](C)[O-])c1SC` (stereo not drawn) [Example 3-171], the “herbicidal activity VIOTR” value in experiment [1] is recorded as 100%. In addition, in experiment [2] (Dosage 80 g/ha), the “herbicidal action VERPE” value was determined as 100. The “herbicidal activity POLCO” value in experiment [3] is reported as 90%. Moreover, the “herbicidal activity MATIN” value in experiment [4] is 100%. Further, the “herbicidal activity SETVI” value in experiment [5] was determined as 100%. Moreover, the “herbicidal action MATIN” value in experiment [6] (Dosage 80 g/ha) was 90.
For `CCCn1nnnc1NC(=O)c1ccc(C(F)F)c(CS(C)(=O)=O)c1SC` [Example 3-172], the “herbicidal activity VIOTR” value in experiment [1] stood at 100%. For the same compound, in experiment [2] (Dosage 80 g/ha), the “herbicidal action VERPE” value worked out at 100. The “herbicidal activity POLCO” value in experiment [3] was 100%. Also, in experiment [4], the “herbicidal activity MATIN” value is reported as 100%. Further, the “herbicidal activity SETVI” value in experiment [5] came to 100%. Further, in experiment [6] (Dosage 80 g/ha), the “herbicidal action MATIN” value was determined as 90.
On to `CCCn1nnnc1NC(=O)c1ccc(C(F)(F)F)c(CS(C)(=O)=O)c1Cl` [Example 3-298], for which, in experiment [1], the “herbicidal activity VIOTR” value turned out to be 100%. Also, the “herbicidal action VERPE” value in experiment [2] (Dosage 80 g/ha) is given as 100. The “herbicidal activity POLCO” value in experiment [3] came to 80%. The “herbicidal activity MATIN” value in experiment [4] was 100%. For the same compound, the “herbicidal activity SETVI” value in experiment [5] was 100%. Moreover, in experiment [6] (Dosage 80 g/ha), the “herbicidal action MATIN” value worked out at 100.
`CCCn1nnnc1NC(=O)c1ccc(C(F)F)c(CS(C)(=O)=O)c1Cl` [Example 3-322]: in experiment [1], the “herbicidal activity VIOTR” value was 100%. For the same compound, the “herbicidal action VERPE” value in experiment [2] (Dosage 80 g/ha) came to 80. In experiment [3], the “herbicidal activity POLCO” value is 100%. For the same compound, the “herbicidal activity MATIN” value in experiment [4] was 100%. In experiment [5], the “herbicidal activity SETVI” value was found to be 100%. The “herbicidal action MATIN” value in experiment [6] (Dosage 80 g/ha) is recorded as 90.
Consider `CCCn1nnnc1NC(=O)c1ccc(C(F)F)c(CSCC)c1Cl` [Example 3-323], for which the “herbicidal activity VIOTR” value in experiment [1] came out at 100%. Also, the “herbicidal action VERPE” value in experiment [2] (Dosage 80 g/ha) amounted to 90. The “herbicidal activity POLCO” value in experiment [3] worked out at 100%. In experiment [4], the “herbicidal activity MATIN” value is listed as 100%. Besides, the “herbicidal activity SETVI” value in experiment [5] came out at 100%. Moreover, in experiment [6] (Dosage 80 g/ha), the “herbicidal action MATIN” value stood at 90.
On to `CCCn1nnnc1NC(=O)c1ccc(C(F)(F)F)c(C[S+]([O-])CC)c1Br` (stereo not drawn) [Example 3-384], for which, in experiment [1], the “herbicidal activity VIOTR” value was 100%. Moreover, the “herbicidal action VERPE” value in experiment [2] (Dosage 80 g/ha) stood at 100. The “herbicidal activity POLCO” value in experiment [3] stood at 80%. The “herbicidal activity MATIN” value in experiment [4] was 100%. The “herbicidal activity SETVI” value in experiment [5] worked out at 100%. Moreover, in experiment [6] (Dosage 80 g/ha), the “herbicidal action MATIN” value is given as 100.
